Assay results published in publication PMC9377007, “An Unexpected Deuterium-Induced Metabolic Switch in Doxophylline” (ACS Medicinal Chemistry Letters, 2022).

Experiments:
[1] = system: P. aeruginosa-induced lung injury; test: Pseudomonas aeruginosa-induced lung injury model; format: in vivo; conditions: P. aeruginosa-treated mice; for MPO activity in lungs / apoptosis in lung tissue, TUNEL assay / collagen deposition (Masson's trichrome) / histological examination by H&E staining / immunohistochemistry of PAR / immunohistochemistry of nitrotyrosine / total BAL cellularity: 80 mg/kg os daily for 7 days; for lung edema, ratio of wet to dry weight of lung tissue: 80 mg/kg os daily, day 7, versus vehicle
Experimental: Lung edema at day 7 was measured as a ratio of wet to dry weight of excised lung tissue (Figure 7c).
Figure 7 Model of pulmonary fibrosis induced by P. aeruginosa. (a) Representative scheme of P. aeruginosa-induced lung injury model. (b) Total BAL cellularity of sham and Pseudomonas-treated mice (treated or not with 80 mg/kg doxophylline, d4-doxophylline, or d7-doxophylline). Results are reported as mean ± SEM of 10 mice for all groups. (c) Wet/dry lung weight ratio of sham and Pseudomonas-treated mice (treated or not with 80 mg/kg doxophylline, d4-doxophylline, or d7-doxophylline). Results are reported as mean ± SEM of 10 mice for all groups. (d) MPO activity in lungs of sham and Pseudomonas-treated mice (treated or not with 80 mg/kg doxophylline, d4-doxophylline, or d7-doxophylline). Results are reported as mean ± SEM of 10 mice for all groups. (e) Representative images of H&E staining of sham and Pseudomonas-treated mice (treated or not with 80 mg/doxophylline, d4-doxophylline, or d7-doxophylline). (f) Representative images of Masson’s trichrome staining of sham and Pseudomonas-treated mice (treated or not with 80 mg/doxophylline, d4-doxophylline and d7-doxophylline). p values: *, p < 0.05; **, p < 0.01; ***, p < 0.001; ****, p < 0.0001. […]
experiments were performed following the new regulations of USA (Animal Welfare Assurance No A5594 - 01), Europe (EU Directive 2010/63) , Italy (D.Lgs 2014/26) and the ARRIVE guidelines.
Tryptic soya agar beads laden with PA were produced as described. The mucoid PA strain NH57388A, was utilized. NH57388A-laden agar beads were prepared the day before inoculation, stored overnight at 4 °C, suspended in sterile PBS to deliver approximately 1 Å~ 106 CFU in 50 μ l per mouse. The inoculation dose […]
Trans-tracheal instillation of beads.
Mice were anaesthetized with inhaled isoflurane delivered initially in an anaesthetic box until unconscious, transferred to a surgical board and maintained under anesthesia with isoflurane via nose cone. The ventral cervical region was sterilized and 1-cm midline skin incision made just cranial to the thoracic inlet. The trachea was visualized by blunt dissection. Traction on the lower jaw was used to extend and straighten the trachea and a 22G intravenous catheter (BD Biosciences) used to cannulate the trachea. A 1-ml syringe, pre-filled with beads suspended in PBS, was attached to the cannuale. The cannulae and syringe were left in-situ for 5-seconds following depression of the plunger, followed by slow withdrawal. The animal was elevated head up to 45- […]
intrapulmonary bead instillation. If evidence of respiratory distress (rapid or labored respiration/ gasping) occurred during the procedure anesthesia was rapidly reversed and oxygen alone administered via nose cone.
The incision was closed with surgical staples. Buprenorphine analgesia was administered subcutaneously post-operatively. Animals were weighed and scored clinically daily. Experiments were terminated at 2-weeks post-inoculation via anesthetic overdose.
Mice were randomly allocated into the following groups. PSEUDOMONAS group: mice were subjected to pseudomonas-induced lung injury (n = 10); PSEUDOMONAS group + doxophylline: Identical to the pseudomonas + vehicle group but were treated daily with doxophylline xo (80 mg/kg os) 1 h after pseudomonas instillation and continued daily for 7 days (n = 10); PSEUDOMONAS group + d4- doxophylline:
Identical to the pseudomonas + vehicle group but were treated daily with doxophylline deuterated d4 (80 mg/kg os) 1 h after pseudomonas instillation and continued daily for 7 days ( n = 10); PSEUDOMONAS group + d7- doxophylline: Identical to the pseudomonas + vehicle group but were treated daily with doxophylline deuterated d7 (80 mg/kg os) 1 h after pseudomonas instillation and continued daily for 7 days (n = 10); SHAM group: mice will receive the vehicle administration daily for 7 days ([…]); SHAM + doxophylline group: […]

[2] = Comparative pharmacokinetic study, single-dose administration in mice; format: in vivo; conditions: for AUC(0-t) / Cmax at 24 h / clearance at 24 h / half-life at 24 h / CL/F at 24 h: male, CD1, mouse, plasma, single dose; for decrease of the area under the curve (AUC) versus doxophylline: oral administration
Experimental: A comparative pharmacokinetic study was then performed by evaluating the plasma concentration profiles of doxophylline and its deuterated analogues after intravenous and oral single-dose administration in mice and minipigs. […] Since the deuterium kinetic isotope effect is often affected by interspecies variability,[28] a PK study was also performed in minipigs. […] A total of 96 CD1 male mice, approximately 6 weeks old and with a body weight of approximately 30 g, were purchased from Envigo RMS srl, (San Pietro al Natisone, UD, Italy). Four males Göttingen minipigs approximately 4-5 months old and weighing 9-11 Kg were purchased from Ellegaard Göttingen Minipigs (Dalmose, Denmark). Protocol for drug administration and blood sampling. Mice. Blood samples were collected under light isoflurane anaesthesia from the sublingual vein at the following time points (n=3): pre-dose and 5, 15, 30 minutes, 1, 2, 4, 8 and 24 hours after i.v. dosing (20 mg/Kg, dose volume 5 mL/Kg) and pre-dose and 15, 30 minutes, 1, 2, 4, 8 and 24 hours after oral gavage dosing (80 mg/Kg, dose volume 5 mL/Kg). Each animal was sampled on each day at a maximum of two alternating time points. Samples were transferred into tubes containing K3EDTA as anticoagulant, centrifuged, and stored at -80 °C. Minipig. Blood samples were collected from the jugular vein at the following time points (n=4): pre-dose and 5, 15, 30 minutes, 1, 2, 4, 8 and 24 hours after i.v. dosing (5 mg/Kg, dose volume 1 mL/Kg) and pre-dose and 15, 30 minutes, 1, 2, 4, 8 and 24 hours after oral gavage dosing (20 mg/Kg, dose volume 4 mL/Kg). Samples were transferred into tubes containing K3EDTA as anticoagulant, centrifuged, and stored at -80 °C. Sample preparation for HPLC-MS analysis. A volume of 50 µL of caffeine solution (1 mg/L in water-methanol 1:1) were added to plasma sample aliquots (50 µL); after the addition of the precipitant solution (100 µL of 10% ice-cold trichloroacetic acid in water), samples were centrifuged at 13,000 rpm for ten minutes and the supernatant injected onto the HPLC system (see supporting information for chromatographic conditions). If the levels of analytes were over range, plasma samples were preventively diluted with blank plasma. Data analysis. Quantification of doxophylline and its deuterated analogues d4 and d7 as well as their main metabolites, 7- theophylline acetic acid (T-COOH), 7-hydroxyethyl theophylline (Eto) and theophylline, was performed by using the calibration curves obtained with the corresponding working standards of the analytes and using caffeine as internal standard. The pharmacokinetic parameters for doxophylline and its deuterated analogues were calculated by plotting the plasma concentration curves versus time obtained from the average values of three animals, using PK Solver 2.0.1 S7

| Compound | MPO activity in lungs [1] | apoptosis in lung tissue, TUNEL assay [1] | collagen deposition (Masson's trichrome) [1] | histological examination by H&E staining [1] | immunohistochemistry of PAR [1] | immunohistochemistry of nitrotyrosine [1] | total BAL cellularity [1] | AUC(0-t) ([2]; intravenous, 20 mg/kg) [ng·h/mL] | Cmax at 24 h ([2]; intravenous, 20 mg/kg) [ng/mL] | clearance at 24 h ([2]; intravenous, 20 mg/kg) [mL/min/kg] | half-life at 24 h ([2]; intravenous, 20 mg/kg) [h] | AUC(0-t) ([2]; oral, 80 mg/kg) [ng·h/mL] | CL/F at 24 h ([2]; oral, 80 mg/kg) [mL/min/kg] | Cmax at 24 h ([2]; oral, 80 mg/kg) [ng/mL] | half-life at 24 h ([2]; oral, 80 mg/kg) [h] | decrease of the area under the curve (AUC) versus doxophylline [2] [%] | lung edema, ratio of wet to dry weight of lung tissue [1] |
| --- | --- | --- | --- | --- | --- | --- | --- | --- | --- | --- | --- | --- | --- | --- | --- | --- | --- |
| [2H]C1([2H])OC(Cn2cnc3c2c(=O)n(C)c(=O)n3C)OC1([2H])[2H] [d4-doxophylline] | lesser nonsignificant effect | did not have any effect | lesser or no effect | reduction of the inflammatory interstitial infiltrate | lesser or no effect | lesser or no effect | increased total BAL cellularity | 5410 | 12300 | 61.7 | 1.5 | 31400 | 41.7 | 16800 | 1.7 | 44 |  |
| [2H]C1([2H])OC([2H])(C([2H])([2H])n2cnc3c2c(=O)n(C)c(=O)n3C)OC1([2H])[2H] [d7-doxophylline] | significantly reduced | reverted | effect | reduction of the inflammatory interstitial infiltrate | effect | effect | significantly reduced | 4920 | 10700 | 68.3 | 1 | 33600 | 40 | 19200 | 2.1 | 40 | considerably decreased |
| Cn1c(=O)c2c(ncn2CC2OCCO2)n(C)c1=O [doxophylline] | significantly reduced | reverted | effect | reduction of the inflammatory interstitial infiltrate | effect | effect | significantly reduced | 6730 | 15500 | 48.3 | 1.1 | 55900 | 23.3 | 18700 | 1.6 |  | considerably decreased |
